This test concerns the target σ1 receptor and the μ-opiod receptor. Put plainly: μ and σ1 dual binding: combined class from the Ki of both radioligand assays. Details: species or system human; key to μ and σ1 dual binding: +: Both Ki-μ and Ki-σ1>=500 nM; ++: One Ki<500 nM while the other Ki is >=500 nM; +++: Both Ki-μ and Ki-σ1<500 nM; ++++: Both Ki-μ and Ki-σ1<100 nM. As to conditions: transfected HEK-293 membranes (σ1), transfected CHO-K1 cell membranes (μ); for μ and σ1 dual binding: combined class for Ki-μ and Ki-σ1. The procedure: To investigate binding properties of σ1 receptor ligands to human σ1 receptor, transfected HEK-293 membranes and [^3H](+)-pentazocine (Perkin Elmer, NET-1056), as the radioligand, were used. The assay was carried out with 7 μg of membrane suspension, 5 nM of [^3H](+)-pentazocine in either absence or presence of either buffer or 10 μM Haloperidol for total and non-specific binding, respectively. Binding buffer contained Tris-HCl 50 mM at pH 8. Plates were incubated at 37° C. for 120 minutes. After the incubation period, the reaction mix was then transferred to MultiScreen HTS, FC plates (Millipore), filtered and plates were washed 3 times with ice-cold 10 mM Tris-HCL (pH7.4). Filters were dried and counted at approximately 40% efficiency in a MicroBeta scintillation counter (Perkin-Elmer) using EcoScint liquid scintillation cocktail
To investigate binding properties of mu-opioid receptor ligands to human μ-opioid receptor, transfected CHO-K1 cell membranes and [^3H]-DAMGO (Perkin Elmer, ES-542-C), as the radioligand, were used. The assay was carried out with 20 μg of membrane suspension, 1 nM of [^3H]-DAMGO in either absence or presence of either buffer or 10 μM Naloxone for total and non-specific binding, respectively. Binding buffer contained Tris-HCl 50 mM, MgCl2 5 mM at pH 7.4. Plates were incubated at 27° C. for 60 minutes. After the incubation period, the reaction mix was then transferred to MultiScreen HTS, FC plates (Millipore), filtered and plates were washed 3 times with ice-cold 10 mM Tris-HCL (pH 7.4). Filters were dried and counted at approximately 40% efficiency in a MicroBeta scintillation counter (Perkin-Elmer) using EcoScint liquid scintillation cocktail.
The following scale as been adopted for representing the binding to the σ1 receptor and the μ-opiod receptor expressed as Ki: • + Both Ki-μ and Ki-σ1>=500 nM • ++ One Ki<500 nM while the other Ki is >=500 nM • +++ Both Ki-μ and Ki-σ1<500 nM • ++++ Both Ki-μ and Ki-σ1<100 nM

The values below come from patent US9981942B2, “Piperidine derivatives having multimodal activity against pain” (LABORATORIOS DEL DR. ESTEVE S.A., priority 2013, dated 2018).

For `CS(=O)(=O)Nc1cccc(C2CCN(Cc3cn(-c4ccccc4F)nn3)CC2)c1` [Example 27, N-(3-(1-((1-(2-fluorophenyl)-1H-1,2,3-triazol-4-yl)methyl)piperidin-4-yl)phenyl)methanesulfonamide], the Ki range for both μ and σ1 (dual-binding class) is less than 100 nM.

Turning to `CS(=O)(=O)Nc1cccc(C2CCN(Cc3cn(-c4cccc(F)c4)nn3)CC2)c1` [Example 28, N-(3-(1-((1-(3-fluorophenyl)-1H-1,2,3-triazol-4-yl)methyl)piperidin-4-yl)phenyl)methanesulfonamide], the Ki range for both μ and σ1 (dual-binding class) is less than 100 nM.

In the case of `c1ccc(-n2cc(CN3CCC(c4cccc5[nH]ncc45)CC3)nn2)cc1` [Example 29, 4-(1-((1-phenyl-1H-1,2,3-triazol-4-yl)methyl)piperidin-4-yl)-1H-indazole], the Ki range for both μ and σ1 (dual-binding class) was less than 500 nM.

Consider `c1ccc(-n2cc(CN3CCC(c4cccc(-c5ncc[nH]5)c4)CC3)nn2)cc1` [Example 30, 4-(3-(1H-imidazol-2-yl)phenyl)-1-((1-phenyl-1H-1,2,3-triazol-4-yl)methyl)piperidine], for which the Ki range for both μ and σ1 (dual-binding class) is less than 500 nM.

As to `CN(c1cccc(C2CCN(Cc3cn(-c4ccccc4)nn3)CC2)c1)S(C)(=O)=O` [Example 31, N-methyl-N-(3-(1-((1-phenyl-1H-1,2,3-triazol-4-yl)methyl)piperidin-4-yl)phenyl)methanesulfonamide], the “μ and σ1 dual binding” value is recorded as “++”.

For the compound `O=C1Cc2c(cccc2C2CCN(Cc3cn(-c4ccccc4)nn3)CC2)N1` [Example 32, 4-(1-((1-phenyl-1H-1,2,3-triazol-4-yl)methyl)piperidin-4-yl)indolin-2-one], the “μ and σ1 dual binding” value is recorded as “++”.

`CS(=O)(=O)Nc1cc(C2CCN(Cc3cn(-c4ccccc4)nn3)CC2)ccc1F` [Example 34, N-(2-fluoro-5-(1-((1-phenyl-1H-1,2,3-triazol-4-yl)methyl)piperidin-4-yl)phenyl)methanesulfonamide]: the Ki range for both μ and σ1 (dual-binding class) was less than 500 nM.

In the case of `CS(=O)(=O)Nc1cc(F)cc(C2CCN(Cc3cn(-c4ccccc4)nn3)CC2)c1` [Example 35, N-(3-fluoro-5-(1-((1-phenyl-1H-1,2,3-triazol-4-yl)methyl)piperidin-4-yl)phenyl)methanesulfonamide], the Ki range for both μ and σ1 (dual-binding class) is less than 100 nM.

Turning to `Oc1cccc(C2CCN(Cc3cn(-c4ccc(F)cc4)nn3)CC2)c1` [Example 36, 3-(1-((1-(4-fluorophenyl)-1H-1,2,3-triazol-4-yl)methyl)piperidin-4-yl)phenol], the Ki range for both μ and σ1 (dual-binding class) is less than 100 nM.

As for `CS(=O)(=O)Nc1cccc(C2CCN(Cc3cn(Cc4ccccc4)nn3)CC2)c1` [Example 37, N-(3-(1-((1-benzyl-1H-1,2,3-triazol-4-yl)methyl)piperidin-4-yl)phenyl)methanesulfonamide], the Ki range for both μ and σ1 (dual-binding class) is less than 500 nM.

For `CN(C)C(=O)Nc1cccc(C2CCN(Cc3cn(-c4ccccc4)nn3)CC2)c1` [Example 38, 1,1-dimethyl-3-(3-(1-((1-phenyl-1H-1,2,3-triazol-4-yl)methyl)piperidin-4-yl)phenyl)urea], the “μ and σ1 dual binding” value is on record as “++”.

For the compound `CC(=O)Nc1cc(F)cc(C2CCN(Cc3cn(-c4ccccc4)nn3)CC2)c1` [Example 39, N-(3-fluoro-5-(1-((1-phenyl-1H-1,2,3-triazol-4-yl)methyl)piperidin-4-yl)phenyl)acetamide], the Ki range for both μ and σ1 (dual-binding class) is less than 500 nM.

With `Oc1cccc(C2CCN(Cc3cn(-c4ccc(Cl)c(Cl)c4)nn3)CC2)c1` [Example 40, 3-(1-((1-(3,4-dichlorophenyl)-1H-1,2,3-triazol-4-yl)methyl)piperidin-4-yl)phenol], the Ki range for both μ and σ1 (dual-binding class) is less than 100 nM.

As to `Oc1cccc(C2CCN(Cc3cn(-c4ccc(Cl)cc4Cl)nn3)CC2)c1` [Example 41, 3-(1-((1-(2,4-dichlorophenyl)-1H-1,2,3-triazol-4-yl)methyl)piperidin-4-yl)phenol], the Ki range for both μ and σ1 (dual-binding class) was less than 100 nM.

For the compound `Cc1nnc(-c2cccc(C3CCN(Cc4cn(-c5ccccc5)nn4)CC3)c2)o1` [Example 42, 2-methyl-5-(3-(1-((1-phenyl-1H-1,2,3-triazol-4-yl)methyl)piperidin-4-yl)phenyl)-1,3,4-oxadiazole], the Ki range for both μ and σ1 (dual-binding class) is less than 500 nM.

For the compound `N#Cc1ccc(Cn2cc(CN3CCC(c4cccc(O)c4)CC3)nn2)cc1` [Example 43, 4-((4-((4-(3-hydroxyphenyl)piperidin-1-yl)methyl)-1H-1,2,3-triazol-1-yl)methyl)benzonitrile], the Ki range for both μ and σ1 (dual-binding class) is less than 100 nM.

With `COc1cccc(-n2cc(CN3CCC(c4cccc(O)c4)CC3)nn2)c1` [Example 44, 3-(1-((1-(3-methoxyphenyl)-1H-1,2,3-triazol-4-yl)methyl)piperidin-4-yl)phenol], the Ki range for both μ and σ1 (dual-binding class) is less than 100 nM.

In the case of `CCN(CC)C(=O)Cn1cc(CN2CCC(c3cccc(O)c3)CC2)nn1` [Example 45, N,N-diethyl-2-(4-((4-(3-hydroxyphenyl)piperidin-1-yl)methyl)-1H-1,2,3-triazol-1-yl)acetamide], the “μ and σ1 dual binding” value was “++”.

With `Oc1cccc(C2CCN(Cc3cn(C4CCc5ccccc54)nn3)CC2)c1` (stereo not drawn) [Example 46, 3-(1-((1-(2,3-dihydro-1H-inden-1-yl)-1H-1,2,3-triazol-4-yl)methyl)piperidin-4-yl)phenol], the Ki range for both μ and σ1 (dual-binding class) is less than 100 nM.

In the case of `CS(=O)(=O)c1cccc(C2CCN(Cc3cn(-c4ccccc4)nn3)CC2)c1` [Example 47, 4-(3-(methylsulfonyl)phenyl)-1-((1-phenyl-1H-1,2,3-triazol-4-yl)methyl)piperidine], the Ki range for both μ and σ1 (dual-binding class) was less than 500 nM.

As to `CS(=O)(=O)Nc1cccc(C2CCN(Cc3cn(C4CCc5ccccc54)nn3)CC2)c1` (stereo not drawn) [Example 48, N-(3-(1-((1-(2,3-dihydro-1H-inden-1-yl)-1H-1,2,3-triazol-4-yl)methyl)piperidin-4-yl)phenyl)methanesulfonamide], the Ki range for both μ and σ1 (dual-binding class) was less than 500 nM.

Consider `CC(=O)Nc1nc2c(C3CCN(Cc4cn(-c5ccccc5)nn4)CC3)cccc2s1` [Example 49, N-(4-(1-((1-Phenyl-1H-1,2,3-triazol-4-yl)methyl)piperidin-4-yl)benzo[d]thiazol-2-yl)acetamide], for which the Ki range for both μ and σ1 (dual-binding class) was less than 100 nM.

Consider `Nc1nc2c(C3CCN(Cc4cn(-c5ccccc5)nn4)CC3)cccc2s1` [Example 50, 4-(1-((1-phenyl-1H-1,2,3-triazol-4-yl)methyl)piperidin-4-yl)benzo[d]thiazol-2-amine], for which the Ki range for both μ and σ1 (dual-binding class) was less than 100 nM.

As for `CC(C)NC(=O)c1cccc(C2CCN(Cc3cn(Cc4ccccc4)nn3)CC2)c1` [Example 51, 3-(1-((1-benzyl-1H-1,2,3-triazol-4-yl)methyl)piperidin-4-yl)-N-isopropylbenzamide], the Ki range for both μ and σ1 (dual-binding class) is not below 500 nM.

On to `Cc1ccc(C2CCN(Cc3cn(-c4ccccc4)nn3)CC2)cc1O` [Example 52, 2-methyl-5-(1-((1-phenyl-1H-1,2,3-triazol-4-yl)methyl)piperidin-4-yl)phenol], for which the Ki range for both μ and σ1 (dual-binding class) is less than 100 nM.

For the compound `CS(=O)(=O)Nc1cccc(C2CCN(Cc3cn(-c4ccccc4)nn3)CC2)c1F` [Example 53, N-(2-fluoro-3-(1-((1-phenyl-1H-1,2,3-triazol-4-yl)methy)piperidin-4-yl)phenyl)methanesulfonamide], the Ki range for both μ and σ1 (dual-binding class) was less than 100 nM.

Consider `Oc1cccc(C2CCN(Cc3cn(Cc4ccncc4)nn3)CC2)c1` [Example 54, 3-(1-((1-(pyridin-4-ylmethyl)-1H-1,2,3-triazol-4-yl)methyl)piperidin-4-yl)phenol], for which the Ki range for both μ and σ1 (dual-binding class) was less than 500 nM.

Consider `Oc1cccc(C2CCN(Cc3cn(Cc4ccccn4)nn3)CC2)c1` [Example 55, 3-(1-((1-(pyridin-2-ylmethyl)-1H-1,2,3-triazol-4-yl)methyl)piperidin-4-yl)phenol], for which the Ki range for both μ and σ1 (dual-binding class) was less than 500 nM.

For `CCNC(=O)Nc1cccc(C2CCN(Cc3cn(-c4ccccc4)nn3)CC2)c1` [Example 56, 1-ethyl-3-(3-(1-((1-phenyl-1H-1,2,3-triazol-4-yl)methyl)piperidin-4-yl)phenyl)urea], the Ki range for both μ and σ1 (dual-binding class) is less than 500 nM.

Consider `CS(=O)(=O)Nc1cccc(C2CCN(Cc3cn(Cc4ccc(C(F)(F)F)cc4)nn3)CC2)c1` [Example 57, N-(3-(1-((1-(4-(trifluoromethyl)benzyl)-1H-1,2,3-triazol-4-yl)methyl)piperidin-4-yl)phenyl)methanesulfonamide], for which the Ki range for both μ and σ1 (dual-binding class) is less than 500 nM.
